The values that follow come from ChEMBL document CHEMBL1155013, “Design, synthesis, and evaluation of fused heterocyclic analogs of SCH 58261 as adenosine A2A receptor antagonists” (Bioorg Med Chem Lett, 2008).

Format in all cases: ADME, organism-based
Data set [1] is described as follows: AUC (0 to 6 hrs) in rat at 3 mg/kg, po. Details: time < 6 hr, dose 3 mg/kg, route oral. As to conditions: plasma.
Data set [2] is described as follows: Bioavailability in rat at 3 mg/kg, po. As to conditions: in vivo.
Data set [3] can be described thus: Half life in rat at 3 mg/kg, po. On the set-up: dose 3 mg/kg, route oral. Conditions: in vivo.
Data set [4] is described as follows: AUC in rat at 3 mg/kg, po. Details: dose 3 mg/kg, route oral. As to conditions: plasma.
A short description of data set [5]: Plasma clearance in rat at 3 mg/kg, po. Details: dose 3 mg/kg, route oral.

In the case of `COc1ccc2c(c1)CN(CCn1ncc3c1nc(N)n1nc(-c4ccco4)nc31)CC2`, the AUC(0-t) at 6 h in data set [1] worked out at 357 ng·h/mL.

`Nc1nc2c(cnn2CCN2CCc3ncncc3C2)c2nc(-c3ccco3)nn12` registered an area under the curve AUC(0-t) at 6 h in data set [1] of 467 ng·h/mL.

`Nc1nc2c(cnn2CCN2CCc3ncc(C4CC4)cc3C2)c2nc(-c3ccco3)nn12` came in with an exposure AUC(0-t) at 6 h in data set [1] of 214 ng·h/mL.

In the case of `Nc1nc2c(cnn2CCN2CCc3ncc(Br)cc3C2)c2nc(-c3ccco3)nn12`, in data set [1], the exposure AUC(0-t) at 6 h stood at 2020 ng·h/mL.

Consider `COCCOc1cccc2c1CN(CCn1ncc3c1nc(N)n1nc(-c4ccco4)nc31)CC2`, for which the AUC(0-t) at 6 h in data set [1] came to 31 ng·h/mL.

Take `Nc1nc2c(cnn2CCN2CCc3nc(C(F)(F)F)ccc3C2)c2nc(-c3ccco3)nn12`: the AUC(0-t) at 6 h in data set [1] is 1240 ng·h/mL.

For `COCCOc1ccc2c(c1)CCN(CCn1ncc3c1nc(N)n1nc(-c4ccco4)nc31)CC2`, the AUC(0-t) at 6 h in data set [1] was determined as 103 ng·h/mL.

For `COCCOc1cnc2c(c1)CN(CCn1ncc3c1nc(N)n1nc(-c4ccco4)nc31)CC2`, in data set [1], the AUC(0-t) at 6 h was 477 ng·h/mL.

For `Nc1nc2c(cnn2CCN2Cc3ccccc3C2)c2nc(-c3ccco3)nn12`, the AUC(0-t) at 6 h in data set [1] stood at 287 ng·h/mL.

`COCCOc1cccc2c1CN(CCn1ncc3c1nc(N)n1nc(-c4ccco4)nc31)C2` registered an AUC(0-t) at 6 h in data set [1] of 215 ng·h/mL.

For the compound `Nc1nc2c(cnn2CCN2CCc3ncccc3C2)c2nc(-c3ccco3)nn12`, the AUC(0-t) at 6 h in data set [1] turned out to be 1790 ng·h/mL.

`Nc1nc2c(cnn2CCN2CCc3ccccc3C2)c2nc(-c3ccco3)nn12` showed an AUC(0-t) at 6 h in data set [1] of 60 ng·h/mL.

`COc1ccc2c(c1)CN(CCn1ncc3c1nc(N)n1nc(-c4ccco4)nc31)C2` displayed an AUC(0-t) at 6 h in data set [1] of 199 ng·h/mL.

In data set [1], `Nc1nc2c(cnn2CCN2CCc3ccccc3CC2)c2nc(-c3ccco3)nn12` returned an AUC(0-t) at 6 h of 48 ng·h/mL.

Take `Cc1cnc2c(c1)CN(CCn1ncc3c1nc(N)n1nc(-c4ccco4)nc31)CC2`: the bioavailability in data set [2] is 71%. Also, the half-life in data set [3] is 11.3 h. The same compound came in with an area under the curve AUC(0-t) at 6 h in data set [1] of 3490 ng·h/mL. The compound also displayed an area under the curve (AUC) in data set [4] of 7980 ng·h/mL. For the same compound, in data set [5], the apparent clearance CL/F worked out at 4.7 mL/min/kg.

For `COc1ccc2c(c1)CCN(CCn1ncc3c1nc(N)n1nc(-c4ccco4)nc31)C2`, the exposure AUC(0-t) at 6 h in data set [1] is 688 ng·h/mL.
